In publication PMC10253817, “Design, Pharmacological Characterization, and Molecular Docking of Minimalist Peptidomimetic Antagonists of α4β1 Integrin” (International Journal of Molecular Sciences, 2023):

Experiments:
α4β1 integrin = target: T1, α4β1 integrin (Homo sapiens, UniProt P05556+P13612); assay: LDV-FITC competitive binding on intact Jurkat E6.1 cells; settings: intact Jurkat E6.1 cells vs. LDV-FITC; mean ± SD
T1 construct: Jurkat E6.1 cell line, which endogenously expresses α4β1 integrin; host or cells: Jurkat E6.1
T1 sequence (P13612 34-1032): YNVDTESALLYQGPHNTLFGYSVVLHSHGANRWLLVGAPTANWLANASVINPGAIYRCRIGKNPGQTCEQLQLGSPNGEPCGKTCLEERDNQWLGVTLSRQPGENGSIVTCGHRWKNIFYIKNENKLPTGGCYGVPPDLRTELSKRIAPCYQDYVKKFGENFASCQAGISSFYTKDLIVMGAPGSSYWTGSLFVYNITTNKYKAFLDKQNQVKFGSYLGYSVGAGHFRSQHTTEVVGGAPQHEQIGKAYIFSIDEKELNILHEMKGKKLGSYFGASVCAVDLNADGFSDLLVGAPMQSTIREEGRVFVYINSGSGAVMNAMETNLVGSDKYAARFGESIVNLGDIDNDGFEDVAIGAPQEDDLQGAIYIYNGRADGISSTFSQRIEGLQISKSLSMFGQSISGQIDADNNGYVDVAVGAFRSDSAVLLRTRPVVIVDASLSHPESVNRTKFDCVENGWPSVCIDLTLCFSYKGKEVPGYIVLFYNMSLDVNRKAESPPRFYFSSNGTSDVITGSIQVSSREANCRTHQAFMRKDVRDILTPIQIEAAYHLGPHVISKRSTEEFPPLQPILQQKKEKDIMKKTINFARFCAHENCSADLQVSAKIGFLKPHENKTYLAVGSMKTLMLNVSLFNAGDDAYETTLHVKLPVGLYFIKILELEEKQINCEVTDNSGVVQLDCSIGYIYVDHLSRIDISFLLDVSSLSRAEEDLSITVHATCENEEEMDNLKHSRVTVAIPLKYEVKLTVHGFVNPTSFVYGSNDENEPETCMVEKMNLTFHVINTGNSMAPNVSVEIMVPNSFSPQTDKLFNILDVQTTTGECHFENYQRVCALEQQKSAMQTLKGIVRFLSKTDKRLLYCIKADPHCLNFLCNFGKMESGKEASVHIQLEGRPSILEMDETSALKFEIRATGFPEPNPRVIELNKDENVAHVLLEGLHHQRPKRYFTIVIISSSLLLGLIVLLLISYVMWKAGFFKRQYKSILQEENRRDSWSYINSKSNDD
T1 sequence (P05556 21-798): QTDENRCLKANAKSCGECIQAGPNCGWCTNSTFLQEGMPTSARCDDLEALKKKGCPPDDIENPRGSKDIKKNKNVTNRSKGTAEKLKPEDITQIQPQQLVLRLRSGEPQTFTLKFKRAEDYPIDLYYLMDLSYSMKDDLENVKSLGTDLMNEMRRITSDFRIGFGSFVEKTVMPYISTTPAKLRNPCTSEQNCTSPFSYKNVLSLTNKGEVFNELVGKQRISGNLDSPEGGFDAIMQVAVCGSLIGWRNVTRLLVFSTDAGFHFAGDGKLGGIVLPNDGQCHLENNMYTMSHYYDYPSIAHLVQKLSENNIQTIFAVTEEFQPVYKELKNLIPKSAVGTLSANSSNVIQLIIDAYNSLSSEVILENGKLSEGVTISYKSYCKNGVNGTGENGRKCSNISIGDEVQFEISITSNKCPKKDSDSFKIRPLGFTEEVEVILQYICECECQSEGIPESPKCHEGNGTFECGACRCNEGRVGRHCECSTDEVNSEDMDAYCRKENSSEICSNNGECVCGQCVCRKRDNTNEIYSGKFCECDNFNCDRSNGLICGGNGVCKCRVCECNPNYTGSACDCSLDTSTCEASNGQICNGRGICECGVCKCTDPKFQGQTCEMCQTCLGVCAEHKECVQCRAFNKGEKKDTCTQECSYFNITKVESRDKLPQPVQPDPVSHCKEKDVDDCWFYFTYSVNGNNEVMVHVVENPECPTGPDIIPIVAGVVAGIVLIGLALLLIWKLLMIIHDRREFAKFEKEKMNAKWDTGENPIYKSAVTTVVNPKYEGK
Method: The assays were performed as previously described with the following modifications. Jurkat E6.1 cells were resuspended (50,000 cells/sample) in 0.1% BSA in a HEPES buffer (NaCl 110 mM; KCl 10 mM; Glucose 10 mM; MgCl2 1 mM; CaCl2 1.5 mM; HEPES 30 mM; pH 7.4) and pre-incubated with different concentrations (10^−11–10^−5 M) of compounds for 20–30 min at RT. Then, LDV-FITC (5 µM) was added to the cells, and they were incubated in the dark for an additional 30 min at RT. At the end of the incubation with LDV-FITC, cells were washed with 0.1% BSA in a HEPES buffer. The FITC fluorescence intensity was measured using an EnSpire Multimode Plate Reader (PerkinElmer, Waltham, MA, USA). The data were plotted as LDV-FITC specific bindings versus the concentration of the competitor, and the data were fitted to a one-site competition equation; the equilibrium dissociation constant Ki was calculated from the IC50 using the Cheng–Prusoff equation.

αMβ2 integrin = target: T2, αMβ2 integrin (Homo sapiens, UniProt P05107+P11215); assay: αMβ2 integrin-mediated HL60 cell adhesion to Fg; assay type: cell-based; settings: HL60 cell adhesion to Fg (10 μg/mL), mean ± SD; for IC50: antagonists
T2 construct: HL60 cells, mainly expressing the leukocyte integrin αMβ2; host or cells: HL60 (PMA-treated)
T2 sequence (P05107 23-769, other chains not shown): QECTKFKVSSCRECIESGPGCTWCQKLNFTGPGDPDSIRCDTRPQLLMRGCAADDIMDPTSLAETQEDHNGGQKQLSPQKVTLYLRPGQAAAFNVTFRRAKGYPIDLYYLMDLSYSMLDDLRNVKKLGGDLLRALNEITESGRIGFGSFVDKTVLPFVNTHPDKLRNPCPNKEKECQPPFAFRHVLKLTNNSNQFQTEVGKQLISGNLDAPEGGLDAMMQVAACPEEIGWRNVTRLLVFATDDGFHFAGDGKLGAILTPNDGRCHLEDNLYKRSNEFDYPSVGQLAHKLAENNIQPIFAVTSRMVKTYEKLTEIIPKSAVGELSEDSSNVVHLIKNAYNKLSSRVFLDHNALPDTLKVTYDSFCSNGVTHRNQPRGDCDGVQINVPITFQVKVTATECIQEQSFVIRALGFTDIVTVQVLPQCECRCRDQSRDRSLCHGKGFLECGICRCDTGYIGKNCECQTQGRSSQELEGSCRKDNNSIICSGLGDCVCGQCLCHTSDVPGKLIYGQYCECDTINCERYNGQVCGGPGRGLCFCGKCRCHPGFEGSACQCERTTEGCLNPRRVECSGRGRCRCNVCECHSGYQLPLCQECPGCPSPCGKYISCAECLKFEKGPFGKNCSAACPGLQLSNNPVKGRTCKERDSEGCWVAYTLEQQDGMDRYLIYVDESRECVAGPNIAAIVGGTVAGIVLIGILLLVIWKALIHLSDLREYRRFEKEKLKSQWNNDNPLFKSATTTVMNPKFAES
Method: (§1) To this purpose, the ability of the best peptidomimetics to modulate cell adhesion mediated by integrins other than α4β1 was evaluated in HL60 cells, mainly expressing the leukocyte integrin αMβ2, and on K562 cells, mainly expressing α5β1, which shares a β1 subunit with the heterodimer α4β1. […] In contrast, 13 was a moderate promoter of cell adhesion mediated by αMβ2 integrin, behaving as an agonist. Regarding α5β1 integrin, none of the peptidomimetics employed were able to modulate K562 cell adhesion, thus being shown to be completely ineffective toward α5β1 integrin. The reference compound DS-70 was ineffective toward both αMβ2 and α5β1 integrins under the same experimental conditions (Table 3).
The assays were performed as previously described. Briefly, regarding adhesion assays on Jurkat E6.1 or HL-60 cells, black 96-well plates (Corning Costar) were coated overnight at 4 °C with FN or Fg (10 μg/mL) or VCAM-1 (2 μg/mL) in order to investigate α4β1 integrin-mediated cell adhesion. To avoid any kind of unspecific binding, plates were incubated with 100 μL/well of blocking solution (1% BSA in HBSS) for 30 min at 37 °C. Cells were counted, stained with the CellTracker green CMFDA (12.5 μM, 30 min at 37 °C, Life Technologies Italia, Milan, Italy) and after three washes, were preincubated with increasing concentrations of new compounds (10^−10–10^−4 M) or with the vehicle (methanol) for 30 min at 37 °C.
Then, cells were plated (500,000/well) on coated wells and incubated for 30 min at 37 °C. Afterwards nonadherent cells were removed via washing with a blocking solution, and the remaining adhered cells were lysed with 0.5% Triton X-100 in PBS (30 min at 4 °C). Green fluorescence was measured (Ex485 nm/Em535 nm) using an EnSpire Multimode Plate Reader (PerkinElmer, Waltham, MA, USA).
(§2) In both types of adhesion assay, the number of adherent cells was determined via comparison with a standard curve made in the same plate. Experiments were carried out in quadruplicate and repeated at least three times. Data analysis and EC50 or IC50 values were calculated using GraphPad Prism 9.5.1 (GraphPad Software, San Diego, CA, USA).
Cell culture. Jurkat E6.1 (expressing both α4β1 and αLβ2 integrin), K562 (expressing α5β1 integrin) and HL60 (expressing α Mβ2 integrin) cell lines were purchased from ATCC (Rockville, MD, USA); these cells were routinely cultured in RPMI-1640 (Life Technologies) supplemented with 1% glutamine and 10% fetal bovine serum (FBS). Cells were grown at 37 °C under 5% CO 2 humidified atmosphere. […]

α5β1 integrin = target: T3, α5β1 integrin (Homo sapiens, UniProt P05556+P08648); assay: α5β1 integrin-mediated K562 cell adhesion to FN; assay type: cell-based; settings: K562 cell adhesion to FN (10 μg/mL)
T3 construct: K562 cells, mainly expressing α5β1, which shares a β1 subunit with the heterodimer α4β1; host or cells: K562 (PMA-treated)
T3 sequence (P08648 42-894 limits assumed): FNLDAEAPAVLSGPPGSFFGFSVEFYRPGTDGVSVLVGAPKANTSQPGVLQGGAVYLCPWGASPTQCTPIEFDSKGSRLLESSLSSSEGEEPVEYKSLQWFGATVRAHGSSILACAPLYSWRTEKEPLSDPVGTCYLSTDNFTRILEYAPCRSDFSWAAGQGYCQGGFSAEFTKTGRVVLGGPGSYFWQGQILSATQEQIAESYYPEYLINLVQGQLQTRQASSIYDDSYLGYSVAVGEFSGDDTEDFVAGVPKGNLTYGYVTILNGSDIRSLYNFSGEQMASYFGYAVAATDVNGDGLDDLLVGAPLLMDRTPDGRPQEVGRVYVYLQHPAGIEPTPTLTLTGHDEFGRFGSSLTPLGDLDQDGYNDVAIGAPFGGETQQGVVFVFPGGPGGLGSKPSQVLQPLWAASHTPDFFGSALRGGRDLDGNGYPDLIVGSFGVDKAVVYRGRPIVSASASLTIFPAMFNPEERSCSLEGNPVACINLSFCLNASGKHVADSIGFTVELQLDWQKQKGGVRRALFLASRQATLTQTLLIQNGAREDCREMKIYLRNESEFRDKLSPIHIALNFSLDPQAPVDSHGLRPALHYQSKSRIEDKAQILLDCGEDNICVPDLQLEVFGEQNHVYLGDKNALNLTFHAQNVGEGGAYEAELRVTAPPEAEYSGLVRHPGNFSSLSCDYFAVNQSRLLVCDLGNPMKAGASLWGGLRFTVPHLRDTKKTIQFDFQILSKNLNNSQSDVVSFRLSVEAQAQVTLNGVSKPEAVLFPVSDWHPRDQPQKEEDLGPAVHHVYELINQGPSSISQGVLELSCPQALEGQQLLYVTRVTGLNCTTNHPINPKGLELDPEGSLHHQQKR
T3 sequence (P08648 895-1049 partner limits assumed): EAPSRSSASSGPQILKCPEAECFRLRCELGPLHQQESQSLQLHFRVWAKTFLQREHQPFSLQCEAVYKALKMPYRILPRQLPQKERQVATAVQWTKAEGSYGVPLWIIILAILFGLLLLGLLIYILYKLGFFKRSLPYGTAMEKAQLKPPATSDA
T3 sequence (P05556 21-798): as the sequence (P05556 21-798) above
Method: as §1
For adhesion assays mediated by α5β1 integrin, K562 cells were pre-treated with PMA (64.85 nM, Merck Life Science, Milan, Italy) for 48 h to enhance α5β1 integrin expression. 96-well plates were coated via passive adsorption with FN (10 μg/mL) overnight at 4 °C; then, the following day, plates were blocked by adding 100 μL/well of a blocking solution (1% BSA in PBS) and incubated for 1 h at 37 °C. K562 cells were counted and preincubated with various concentrations (10^−10–10^−4 M) of the peptides or with the vehicle for 30 min at RT. Then, K562 cells were plated (50,000 cells/well) and incubated at RT for 1 h. The wells were then washed three times with 1% BSA in PBS, and 50 μL of hexosaminidase substrate was added and incubated at RT for 1 h. After the addition of 100 μL of stopping solution (50 mM glycine and 5 mM EDTA, pH 10.4), plates were read at 405 nm in an EnSpire Multimode Plate Reader.
as §2
Cell culture. Jurkat E6.1 (expressing both α4β1 and αLβ2 integrin), K562 (expressing α5β1 integrin) and HL60 (expressing α Mβ2 integrin) cell lines were purchased from ATCC (Rockville, MD, USA); these cells were routinely cultured in RPMI-1640 (Life Technologies) supplemented with 1% glutamine and 10% fetal bovine serum (FBS). Cells were grown at 37 °C under 5% CO 2 humidified atmosphere. 40 h before the adhesion assays, K562 and HL60 cells were treated with 25 nM or 40 nM phorbol 12 -myristate 13-acetate (PMA; Sigma-Aldrich), respectively, to induced cell differentiation and to increased α5β1 or αMβ2 integrin expression on cell surface (Baiula et al., 2016).
Cell adhesion assays . Concentration-response curves, obtained from cell adhesion assays performed in […]
Figure S1. […]

Row | SMILES | Ki (α4β1 integrin) [nM] | IC50 (αMβ2 integrin) [nM] | IC50 (α5β1 integrin) [nM] | EC50 (αMβ2 integrin; agonist = increased number of adherent cells) [nM]
1 | CC(=O)N[C@@H](CNC(=O)Cc1ccc(NC(=O)Nc2ccccc2C)cc1)C(=O)NCC(=O)O [compound 3] | 1.3 ± 0.7 | 76 | > 5000 | –
2 | CCCNC(=O)[C@@H](CC(=O)NCC(=O)O)NC(=O)Cc1ccc(NC(=O)Nc2ccccc2C)cc1 [compound 8] | 1.9 ± 0.8 | > 5000 | > 5000 | –
3 | Cc1ccccc1NC(=O)Nc1ccc(CNC(=O)C[C@@H](C)NC(=O)CC(=O)O)cc1 [compound 13] | 16.7 ± 5.2 | – | > 5000 | 285
